Test results: patent US10889591B2, “PDE9 inhibitor and use thereof” (Nanjing TransThera Biosciences Co. Ltd., priority 2017, dated 2021)
Where two headings read alike, the source gives them in different places.

Tests used:
Human PDE9 [1] = target: T1, Human PDE9 (Homo sapiens (Human), UniProt O76083); conditions: background statement, in words; cited from earlier work
[2] = human; for CLint: microsomes
in vitro = conditions: human, microsomes
Human PDE9 [3] = target: T1, Human PDE9; conditions: background statement; read-out: binding constant (Km) of PDE9; cited from earlier work
[4] = Rat pharmacokinetic evaluation; type: in vivo, SD male rats; conditions: male, Sprague-Dawley, plasma, SD rat; for Tmax / AUC(0-t) / half-life: po, intragastric 5 mg/kg; for Tmax: median; for AUC(0-t): read-out: AUClast po; for half-life: read-out: tz1/2 po (terminal elimination half-life) (converted); for bioavailability: dose iv/po 1/5 mg/kg, read-out: F % (absolute bioavailability)
Method: Experimental Example 4: Rat Pharmacokinetic Evaluation of the Compounds of the Invention
Aim: The in vivo pharmacokinetic parameters of the compounds in SD male rats (purchased from Beijing Vital River Animal Technology Co., Ltd.) were evaluated and bioavailability of the compounds was examined.
Animal Administration and Sample Collection:
The solution of compounds 65, 90, 107, 158 was intragastrically administered to SD rat at a dose of 5.0 mg/kg.
The experimental compound 76 was dissolved in 30% DMF+30% PEG400+40% saline to prepare a solution. The solution of compound 76 was intragastrically administered to SD rat at a dose of 5.0 mg/kg.
The experimental compound 76 was dissolved in 30% DMF+30% PEG400+40% saline to prepare a solution.
The experimental compounds 84 and 96 were dissolved in 5% DMSO+10% PEG400+85% (28% HP-β-CD) saline to prepare a solution. The solution of compounds 84 and 96 was intragastrically administered to SD rat at a dose of 5.0 mg/kg.
The experimental compounds 84 and 96 were dissolved in 5% DMSO+10% PEG400+85% (28% HP-β-CD) saline to prepare a solution.
The animals were fixed. The tail was heated with a water bath at 10 min before each time point. About 100 μL of blood from tail vein was collected, and then placed in an anti-coagulation tube containing EDTA-K2 after collection. Blood samples were centrifuged at 8000 rpm at 4° C. for 6 min to obtain plasma samples.
The concentration of test sample was output using Analyst 1.6.1 from AB SCIEX.

[5] = Rat pharmacokinetic evaluation; type: in vivo, SD male rats; conditions: SD rat, intravenous bolus 1 mg/kg; for AUC(0-t) / clearance / half-life: male, Sprague-Dawley, plasma; for AUC(0-t): read-out: AUClast iv; for clearance: read-out: Cl_obs iv (clearance rate) (converted); for half-life: read-out: tz1/2 iv (terminal elimination half-life) (converted)
[6] = Canine pharmacokinetic evaluation; type: in vivo; conditions: Beagle dogs; for Vz_obs iv (apparent distribution volume) / AUC(0-inf) / half-life / bioavailability / clearance: n = 3; for Tmax / AUC(0-inf) / half-life / bioavailability / clearance: dog, plasma; for Tmax: n = 3, median; for clearance: read-out: Cl_obs iv (clearance rate) (converted)
Description: 1. Animal Administration and Sample Collection
2. Sample Analysis Method
3. Data Processing Method

[7] = Stability in human liver microsome
[8] = intravenous bolus 1 mg/kg, read-out: AUCinf iv
[9] = intravenous bolus 1 mg/kg, read-out: tz1/2 iv (terminal elimination half-life) (converted)

T1 sequence (O76083 whole entry): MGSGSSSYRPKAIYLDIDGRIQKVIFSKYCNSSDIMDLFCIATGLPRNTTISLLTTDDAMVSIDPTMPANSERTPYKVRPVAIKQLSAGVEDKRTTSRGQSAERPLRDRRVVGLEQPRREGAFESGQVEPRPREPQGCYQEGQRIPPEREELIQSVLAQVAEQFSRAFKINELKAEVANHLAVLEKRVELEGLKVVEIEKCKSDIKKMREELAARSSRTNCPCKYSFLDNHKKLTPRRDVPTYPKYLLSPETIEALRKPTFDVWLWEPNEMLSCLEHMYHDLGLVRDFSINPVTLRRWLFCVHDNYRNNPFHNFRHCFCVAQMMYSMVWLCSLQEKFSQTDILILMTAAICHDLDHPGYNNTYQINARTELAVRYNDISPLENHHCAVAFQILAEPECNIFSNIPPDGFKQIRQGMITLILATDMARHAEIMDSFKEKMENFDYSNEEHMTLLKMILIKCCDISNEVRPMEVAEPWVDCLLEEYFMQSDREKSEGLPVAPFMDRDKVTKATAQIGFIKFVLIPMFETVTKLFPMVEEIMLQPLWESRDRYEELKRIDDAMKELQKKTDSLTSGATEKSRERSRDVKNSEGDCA

| SMILES | inhibition activity on PDE9 (Human PDE9 [1]) | Original drug residual % at 60 min [2] | k [2] | CLint [2] | half-life (in vitro) | Tmax [4] | AUC(0-t) [4] | half-life [4] | bioavailability [4] | Vz_obs iv (apparent distribution volume) [5] | AUC(0-t) [5] | clearance [5] | half-life [5] | further results |
| --- | --- | --- | --- | --- | --- | --- | --- | --- | --- | --- | --- | --- | --- | --- |
| CCOC(=O)C1=C[C@]2(CC)CCCN3CCc4c(n1c1ccccc41)[C@@H]32 [vinpocetine] | no or very low inhibition activity | – | – | – | – | – | – | – | – | – | – | – | – | – |
| N#Cc1c(N2CCC3(CCC3)CC2)c2cc(N3CC(N)C3)ncc2[nH]c1=O [Compound 53, 6-(3-aminoazetidin-1-yl)-2-oxo-4-(7-azaspiro[3.5]nonane-7-yl)-1,2-dihydro-1,7-naphthyridin-3-carbonitrile] | – | 91.4% | 0.4821 min⁻¹ | 0.0022 mL · min^−1 · mg^−1 proteins | 10.5 h | – | – | – | – | – | – | – | – | – |
| CC(C)(O)c1cc2c(N3CCC4(CCC4)CC3)c(C#N)c(=O)[nH]c2cn1 [Compound 82, 6-(2-hydroxypropan-2-yl)-2-oxo-4-(7-azaspiro[3.5]nonane-7-yl)-1,2-dihydro-1,7-naphthyridin-3-carbonitrile] | – | 72.4% | 0.9760 min⁻¹ | 0.0112 mL · min^−1 · mg^−1 proteins | 2.07 h | – | – | – | – | – | – | – | – | – |
| Nc1ncnc2c1ncn2[C@@H]1O[C@@H]2COP(=O)(O)O[C@H]2[C@H]1O [cAMP, cyclic adenosine monophosphate] | – | – | – | – | – | – | – | – | – | – | – | – | – | Km (Human PDE9 [3]): 230 µM |
| N#Cc1c(N2CCC3(CC2)CC3)c2cc(C(O)C3CC3)ncc2[nH]c1=O (stereo not shown) [Compound 90, 6-(cyclopropyl (hydroxy)methyl)-2-oxo-4-(6-azaspiro[2.5]octane-6-yl)-1,2-dihydro-1,7-naphthyridin-3-carbonitrile] | – | 80.5% | 0.0037 min⁻¹ | 0.0074 mL · min^−1 · mg^−1 proteins | 3.12 h | 1 h | 3700 ng·h/mL | 4.49 h | 47.4% | 1.38 L/kg | 1590 ng·h/mL | 10.5 mL/min/kg | 1.48 h | – |
| CC(C)(O)c1cc2c(N3CCC4(CC3)CC4)c(C#N)c(=O)[nH]c2cn1 [Compound 84, 6-(2-hydroxypropan-2-yl)-2-oxo-4-(6-azaspiro[2.5]octane-6-yl)-1,2-dihydro-1,7-naphthyridin-3-carbonitrile] | – | – | – | – | – | 1 h | 7580 ng·h/mL | 3.24 h | 62.5% | 1.16 L/kg | 2430 ng·h/mL | 8.17 mL/min/kg | 1.89 h | – |
| CCc1cc2c(N3CCC(C)(OC)CC3)c(C#N)c(=O)[nH]c2cn1 [Compound 107, 6-ethyl-4-(4-methoxy-4-methylpiperidin-1-yl)-2-oxo-1,2-dihydro-1,7-naphthyridin-3-carbonitrile] | – | – | – | – | – | 0.5 h | 1940 ng·h/mL | 2.68 h | 56.8% | 2.13 L/kg | 748 ng·h/mL | 24.2 mL/min/kg | 1.25 h | Vz_obs iv (apparent distribution volume) ([6]; intravenous bolus 1 mg/kg): 2.05 L/kg; Tmax ([6]; po, intragastric 1 mg/kg): 0.5 h; AUC(0-inf) ([6]; po, intragastric 1 mg/kg, read-out: AUCinf po): 757 ng·h/mL; half-life ([6]; po, intragastric 1 mg/kg, read-out: tz1/2 po (terminal elimination half-life) (converted)): 2.56 h; bioavailability ([6]; dose iv/po 1/1 mg/kg): 61.5%; AUC(0-inf) [6, 8]: 1230 ng·h/mL; clearance ([6]; intravenous bolus 1 mg/kg): 16 mL/min/kg; half-life [6, 9]: 1.64 h; CLint ([7]; human liver microsome 0.5 mg protein/mL, compound 1 μM): 0.0046 mL · min^−1 · mg^−1 proteins; k ([7]; human liver microsome 0.5 mg protein/mL, compound 1 μM, slope of log remaining amount versus time): 0.0023 min⁻¹; Original drug residual % at 60 min ([7]; human liver microsome 0.5 mg protein/mL, compound 1 μM, β-NADPH 1 mM, 37° C., 60 min): 88.5%; half-life at 1 μM ([7]; human, liver microsomes): 5.02 h |
| Nc1nc2c(ncn2[C@@H]2O[C@@H]3COP(=O)(O)O[C@H]3[C@H]2O)c(=O)[nH]1 [cGMP, cyclic guanosine monophosphate] | – | – | – | – | – | – | – | – | – | – | – | – | – | Km (Human PDE9 [3]): 0.17 µM |
| COc1ccc(C2CNC(=O)C2)cc1OC1CCCC1 (stereo not shown) [rolipram] | no or very low inhibition activity | – | – | – | – | – | – | – | – | – | – | – | – | – |
| Cc1cc2c(N3CCC4(CCC4)CC3)c(C#N)c(=O)[nH]c2cn1 [Compound 65, 6-methyl-2-oxo-4-(7-azaspiro[3.5]nonane-7-yl)-1,2-dihydro-1,7-naphthyridin-3-carbonitrile] | – | – | – | – | – | 0.5 h | 3000 ng·h/mL | 2.25 h | 51.8% | 1.75 L/kg | 1240 ng·h/mL | 13.8 mL/min/kg | 1.47 h | Vz_obs iv (apparent distribution volume) ([6]; intravenous bolus 1 mg/kg): 0.66 L/kg; Tmax ([6]; po, intragastric 2 mg/kg): 0.5 h; AUC(0-inf) ([6]; po, intragastric 2 mg/kg, read-out: AUCinf po): 543 ng·h/mL; half-life ([6]; po, intragastric 2 mg/kg, read-out: tz1/2 po (terminal elimination half-life) (converted)): 0.47 h; bioavailability ([6]; dose iv/po 1/2 mg/kg): 25.5%; AUC(0-inf) [6, 8]: 1060 ng·h/mL; clearance ([6]; intravenous bolus 1 mg/kg): 15.7 mL/min/kg; half-life [6, 9]: 0.49 h |
| N#Cc1c(N2CCC3(CC2)CC3)c2ncccc2[nH]c1=O [Compound 80, 2-oxo-4-(6-azaspiro[2.5]octane-6-yl)-1,2-dihydro-1,5-naphthyridin-3-carbonitrile] | – | 41.7% | 0.9877 min⁻¹ | 0.0292 mL · min^−1 · mg^−1 proteins | 0.792 h | – | – | – | – | – | – | – | – | – |
| CCc1cc2c(N3CCC4(CC3)CC4)c(C#N)c(=O)[nH]c2cn1 [Compound 76, 6-ethyl-2-oxo-4-(6-azaspiro[2.5]octane-6-yl)-1,2-dihydro-1,7-naphthyridin-3-carbonitrile] | – | 87.3% | 0.0015 min⁻¹ | 0.0030 mL · min^−1 · mg^−1 proteins | 7.7 h | 1 h | 5750 ng·h/mL | 9.6 h | 113% | 1.25 L/kg | 1010 ng·h/mL | 17.3 mL/min/kg | 0.89 h | – |
| CC(=O)Nc1ccc(-c2c[nH]c(=O)cn2)cc1 [SKF94120] | no or very low inhibition activity | – | – | – | – | – | – | – | – | – | – | – | – | – |
| OCCN(CCO)c1nc(N2CCCCC2)c2nc(N(CCO)CCO)nc(N3CCCCC3)c2n1 [dipyridamole] | no or very low inhibition activity | – | – | – | – | – | – | – | – | – | – | – | – | – |
| CC(C)Cn1c(=O)n(C)c(=O)c2[nH]cnc21 [IBMX] | no or very low inhibition activity | – | – | – | – | – | – | – | – | – | – | – | – | – |
| N#Cc1c(N2CCC3(CCC3)CC2)c2cc(N3CC(O)C3)ncc2[nH]c1=O [Compound 51, 6-(3-hydroxyazetidin-1-yl)-2-oxo-4-(7-azaspiro[3.5]nonane-7-yl)-1,2-dihydro-1,7-naphthyridin-3-carbonitrile] | – | 74.1% | 0.9418 min⁻¹ | 0.0110 mL · min^−1 · mg^−1 proteins | 2.1 h | – | – | – | – | – | – | – | – | – |
